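Abbreviation: GI50, concentration required for 50% inhibition of growth. TGI marks complete inhibition of growth.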
Tests used:
Experiment in all cases: DTP human tumour cell line panel, 384-well format
HCT-116 colon = system: HCT-116 colon
TK-10 renal = system: TK-10 renal
RXF 393 renal = system: RXF 393 renal
MDA-MB-435 melanoma = system: MDA-MB-435 melanoma
OVCAR-3 ovarian = system: OVCAR-3 ovarian
786-0 renal = system: 786-0 renal
CAKI-1 renal = system: CAKI-1 renal
SK-MEL-28 melanoma = system: SK-MEL-28 melanoma
OVCAR-5 ovarian = system: OVCAR-5 ovarian
HCC-2998 colon = system: HCC-2998 colon
SK-OV-3 ovarian = system: SK-OV-3 ovarian
A549 NSCLC = system: A549 NSCLC
HT29 colon = system: HT29 colon
NCI-H322M lung = system: NCI-H322M lung
MALME-3M melanoma = system: MALME-3M melanoma
HOP-92 NSCLC = system: HOP-92 NSCLC
SF-539 CNS = system: SF-539 CNS
HCT-15 colon = system: HCT-15 colon
HOP-62 NSCLC = system: HOP-62 NSCLC
ACHN renal = system: ACHN renal
NCI-H23 lung = system: NCI-H23 lung
SK-MEL-2 melanoma = system: SK-MEL-2 melanoma
NCI/ADR-RES ovarian = system: NCI/ADR-RES ovarian
COLO 205 colon = system: COLO 205 colon
SNB-75 CNS = system: SNB-75 CNS
IGROV1 ovarian = system: IGROV1 ovarian
A498 renal = system: A498 renal
SW-620 colon = system: SW-620 colon
MCF7 breast = system: MCF7 breast
M14 melanoma = system: M14 melanoma

## NC1(Cc2ccc(Cl)cc2)CCN(c2ncnc3[nH]ccc23)CC1
HCT-116 colon
  GI50: 3.67 µM
  TGI: 13.4 µM
TK-10 renal
  GI50: 3.15 µM
  TGI: 13.3 µM
RXF 393 renal
  GI50: 2140 nM
  TGI: 7.4 µM
MDA-MB-435 melanoma
  GI50: 2410 nM
  TGI: 6.35 µM
OVCAR-3 ovarian
  GI50: 9.12 µM
  TGI: 21.4 µM
786-0 renal
  GI50: 2330 nM
  TGI: 12.1 µM
CAKI-1 renal
  GI50: 3.96 µM
  TGI: 16 µM
SK-MEL-28 melanoma
  GI50: 2260 nM
  TGI: 5.94 µM
OVCAR-5 ovarian
  GI50: 6.84 µM
  TGI: 26.7 µM
HCC-2998 colon
  GI50: 1960 nM
  TGI: 5.94 µM
SK-OV-3 ovarian
  GI50: 3.84 µM
  TGI: 17.3 µM
A549 NSCLC
  GI50: 4.27 µM
  TGI: 15.5 µM
HT29 colon
  GI50: 2630 nM
  TGI: 12.3 µM
NCI-H322M lung
  GI50: 4.85 µM
  TGI: 17.6 µM
MALME-3M melanoma
  GI50: 2250 nM
  TGI: 5.8 µM
HOP-92 NSCLC
  GI50: 2200 nM
  TGI: 9.62 µM
SF-539 CNS
  GI50: 1460 nM
  TGI: 7.16 µM
HCT-15 colon
  GI50: 3.93 µM
  TGI: 17.8 µM
HOP-62 NSCLC
  GI50: 4.77 µM
  TGI: 17.2 µM
ACHN renal
  GI50: 3.89 µM
  TGI: 15.8 µM
NCI-H23 lung
  GI50: 4 µM
  TGI: 16 µM
SK-MEL-2 melanoma
  GI50: 7.52 µM
  TGI: 19 µM
NCI/ADR-RES ovarian
  GI50: 8.66 µM
  TGI: 21.1 µM
COLO 205 colon
  GI50: 3.34 µM
  TGI: 12.3 µM
SNB-75 CNS
  GI50: 1540 nM
  TGI: 7.76 µM
IGROV1 ovarian
  GI50: 1530 nM
  TGI: 9.67 µM
A498 renal
  GI50: 3.16 µM
  TGI: 14.8 µM
SW-620 colon
  GI50: 4.6 µM
  TGI: 16.2 µM
MCF7 breast
  GI50: 2550 nM
  TGI: 12.7 µM
M14 melanoma
  GI50: 4.51 µM
